Measured values: patent US20150073055A1, “USE OF MODAFINIL IN THE TREATMENT OF COCAINE ADDICTS” (DEBREGEAS ET ASSOCIES PHARMA, priority 2012, published 2015)

How the values were obtained:
[1] = Solubility in supercritical CO2 or another supercritical solvent; type: physicochemical
Method: A method for a novel formulation being the object of the present invention, uses the technology of supercritical CO2 based on the solvent power of CO2 which may be modulated at will according to the pressure and temperature conditions which are applied to it. In the supercritical state (more than 74 bars and 31° C.), CO2 has very particular properties. The obtained fluid is characterized by great diffusivity (of the order of that of gases), which gives it good diffusion capability, and a high density which provides it with significant transport and extraction capability.
A supercritical fluid has another advantage over other solvents: its solubility changes depending on whether its temperature or its pressure is varied. Thus it is possible to ensure that it is a solvent for certain substances at a given instant, and no longer for one at the following instant. This facilitates recovery of the substance which was dissolved.
The following step consists of spraying the dissolved active ingredient on an inert support, and then of studying the grain size of the obtained particles as well as the crystalline form of the same particles.
Different parameters were then modified: • changing the inert support (anhydrous lactose replaced with mannitol), • increasing the loading level up to 30% of active ingredient load, • using S modafinil, • a supercritical solvent other than CO2 . […]

[2] = cited from earlier work
[3] = crystalline white powder, cited from earlier work
[4] = estimated; absolute bioavailability was not able to be determined; cited from earlier work

Row | Compound | solubility in CO2 [1] | elimination half-life ([2]; in humans) | solubility in acetone ([3]; acetone) | solubility in methanol ([3]; methanol) | solubility in water ([3]; water) | bioavailability [4] | AUC (area under the curve) compared with the racemic form ([2]; after administration) | variability of plasma levels compared with the racemic form ([2]; after administration)
1 | NC(=O)C[S+]([O-])C(c1ccccc1)c1ccccc1 (racemic) [Modafinil, 2-[(diphenylmethyl)sulfinyl]acetamide] | acceptable solubility | about 14 hours | partly soluble | partly soluble | practically insoluble | about 40% |  | 
2 | NC(=O)C[S@@+]([O-])C(c1ccccc1)c1ccccc1 (single isomer, unassigned) [enantiomer R] |  |  |  |  |  |  | greater AUC (area under the curve) than the racemic form | less variability of plasma levels
